Data from patent US4125501A, “Phosphites of sugar alcohols and polymers stabilized therewith” (Hoechst Aktiengesellschaft, priority 1976, dated 1978).

What was measured:
[1] = dynamic heat stability (rolling stability) in polyvinyl chloride; conditions: 180° C, 20 rpm, 0.5 part phosphite per 100 parts PVC
Protocol: Each time 100 parts of a mass polyvinyl chloride having a K value of 60 were intimately mixed with
0.2 part of 2-phenyl-indole,
3.0 parts of epoxidized soybean oil
0.3 part of stearyl stearate
0.5 part of glycerol monostearate and
0.5 part each of respective phosphite of the invention.
To measure the dynamic heat stability (rolling stability) the mixtures were rolled on a two roll mill at 180° C. and with 20 revolutions per minute. At intervals of 10 minutes samples were taken from the rough sheet and the color of the samples was compared with the colors of a proper color chart. Rolling was continued until the rough sheet had turned black.
In the color chart used the individual notes have the following meaning: […]

[2] = stability to hydrolysis (boiling in deionized water, titration of liberated phosphorous acid); assay type: physicochemical; conditions: for degree of hydrolysis after 60 minutes: 1 h
Protocol: The stability to hydrolysis was tested according to the process disclosed in DT-OS 2,144,181, pages 7/8. 5.0 g each of the respective phosphite were boiled for 20 and 60 minutes in 100 ml of deionized water. The mixture was then allowed to cool, it was filtered to remove residues, if any, and in the filtrate the liberated phosphorous acid was titrated with 0.1N KOH against bromophenol blue.
In the following table is indicated the degree of hydrolysis determined under the specified conditions as quotient of the actual consumption of KOH and the theoretically possible consumption with a complete hydrolysis.

[3] = acute toxicity in male albino mice, per os; assay type: in vivo
Protocol: To test the acute toxicities of the compounds of the invention male albino mice were fed as prescribed in the book "Grundlagen der experimentellen Arzneimittelforschung" by Leopold Ther, addition 1965.
The phosphite to be tested was administered per os, suspended in aqueous methyl cellulose (Tylose^R) solution, to groups of 5 test animals each, the doses being 1,000, 2,000, and 5,000 mg/kg of body weight.

Compound	degree of hydrolysis after 20 minutes [2]	degree of hydrolysis after 60 minutes [2]	further results
CCCCCCCCCCCCCCCCCCOP1OCC2(CO1)COP(OCCCCCCCCCCCCCCCCCC)OC2 (stereo not drawn) [distearyl-pentaerythrityl-diphosphite]			dynamic (rolling) stability, discoloration of rough sheet after a rolling time of 40' ([1]; 40'): 4; dynamic (rolling) stability, discoloration of rough sheet after a rolling time of 50' ([1]; 50'): 5
Di-(β-hydroxy-eicosyl)-mono-thiododecyl-mannityl-triphosphite [Example 5]	1.0 % of theory	2.0 % of theory	
Di-(β-hydroxy-triacontyl)-mannityl-diphosphite [Example 3]	21.0 % of theory		
Di-(β-hydroxy-triacontyl)-mono-thiododecyl-sorbityl-triphosphite [Example 4]	1.5 % of theory	3.6 % of theory	
Di-(β-hydroxy-triacontyl)-sorbityl-diphosphite [Example 2]	22.5 % of theory		toxicity assessment ([3]; acute): practically innocuous; deaths at the highest dosage ([3]; per os, highest dose 5,000 mg/kg of body weight): no animal died
Tri-(β-hydroxy-triacontyl)-sorbityl-triphosphite [Example 1]	1.8 % of theory	2.4 % of theory	
